In patent EP0902088A2, “Peptides with antiproliferative properties” (Radulescu, Razvan T., priority 1996, dated 1999):

Assays:
MCF-7-Zellen = test: Cell cycle analysis by FACS in MCF-7 breast carcinoma cells; type: cell-based, human
Description: Die eine Versuchsanordnung beinhaltet Versuche mit der humanen intaktes Retinoblastomprotein enthaltenden Mammakarzinom-Zell-Linie MCF-7 bzw. der humanen defektes Retinoblastomprotein enthaltenden Osteosarkom-Zell-Linie SAOS-2. Man sät die Zellen zuerst in 12-well-Platten 100.000 (= Hunderttausend) Zellen/-well/ml RPMI oder DMEM/10% FCS) aus, läßt sie 24 Stunden adhärieren, […], und stimuliert sie dann entweder mit 10% FCS oder 10^-8 M IGF-1 oder 10^-6 M Insulin für 24 Stunden, wobei der Effekt der jeweils zugegebenen Peptide auf die jeweilige Stimulation, die ein Maß für die Zellteilungsrate ist, untersucht wird. Die Kontrollgruppe (G0/G1-synchronisierte Zellen) wird zum Zeitpunkt 0 nach der dreitägigen Hungerphase fixiert, die restlichen Zellen (+/- Peptid) werden nach 24 Stunden fixiert. Daraufhin werden die Zellen zwecks Zellzyklusanalyse im FACS analysiert. Analoge Methoden finden sich beispielsweise bei R. Fahraeus et al., Current Biology, 1996, Vol. 6, No. 1, pp 84-91 sowie bei L. Zhu et al., Genes & Development, 1993, Vol. 7, pp. 1111-1125.

SAOS-2-Zellen = test: Cell cycle analysis by FACS in SAOS-2 osteosarcoma cells; type: cell-based, human; conditions: peptide 10^-5M
Description: Die eine Versuchsanordnung beinhaltet Versuche mit der humanen intaktes Retinoblastomprotein enthaltenden Mammakarzinom-Zell-Linie MCF-7 bzw. der humanen defektes Retinoblastomprotein enthaltenden Osteosarkom-Zell-Linie SAOS-2. Man sät die Zellen zuerst in 12-well-Platten 100.000 (= Hunderttausend) Zellen/-well/ml RPMI oder DMEM/10% FCS) aus, läßt sie 24 Stunden adhärieren, hungert sie anschließend 3 Tage in DMEM ohne FCS mit dem Zweck, die Zellen in der G0/G1-Phase zu synchronisieren, und stimuliert sie dann entweder mit 10% FCS oder 10^-8 M IGF-1 oder 10^-6 M Insulin für 24 Stunden, wobei der Effekt der jeweils zugegebenen Peptide auf die jeweilige Stimulation, die ein Maß für die Zellteilungsrate ist, untersucht wird. Die Kontrollgruppe (G0/G1-synchronisierte Zellen) wird zum Zeitpunkt 0 nach der dreitägigen Hungerphase fixiert, die restlichen Zellen (+/- Peptid) werden nach 24 Stunden fixiert. Daraufhin werden die Zellen zwecks Zellzyklusanalyse im FACS analysiert. Analoge Methoden finden sich beispielsweise bei R. Fahraeus et al., Current Biology, 1996, Vol. 6, No. 1, pp 84-91 sowie bei L. Zhu et al., Genes & Development, 1993, Vol. 7, pp. 1111-1125.

K562-Zellen = test: Cytotoxicity by trypan blue counting in K562 leukaemia cells; type: cell-based; conditions: asynchronous K562 in RPMI with 10 % FCS, peptide 10^-5M, several time points
Description: Fig. 13 zeigt, daß der zytotoxische Effekt des erfindungsgemäßen Peptids P3 [10^-5M] auf asynchrone K562-Zellen, die in RPMI-Zellkulturmedium mit 10 % FCS inkubiert wurden, zeitabhängig ist. Die Ergebnisse wurden aufgetragen als lebende mit P3 behandelte Zellen als Prozent der lebenden mit P3 nicht behandelten Zellen. Die Zahl der lebenden Zellen wurde ermittelt, indem man mindestens 200 Zellen mit der Trypanblaumethode zu jedem angegebenen Zeitpunkt auszählte.
(§1) Die zweite Versuchsanordnung betrifft die Leukämie-Zell-Linien K562 und CCRF-CEM und CCRF-CEM/ACT400. Hierbei wurden jeweils 100.000 asynchrone Zellen/well/ml RPMI/10% FCS für 48 Stunden mit den jeweiligen Peptiden in 6-well-Platten inkubiert. Als Readout gilt die Anzahl der mit Hilfe der Trypanblaufärbung (L.D. Attardi et al., The EMBO Journal, 1996, Vol. 15, No. 14, pp. 3693-3701 und M.K. Reeder & H.C. Isom, Cell Growth & Differentiation, 1996, Vol. 7, pp. 449-460) nach 48 Stunden Inkubationszeit festgestellten toten Zellen/200 ausgezählte Zellen. Je mehr tote Zellen, desto zytotoxischer das Peptid und damit umso effektiver.

CCRF-CEMsensitiv = test: Cytotoxicity by trypan blue counting in CCRF-CEM (sensitive) leukaemia cells; type: cell-based; conditions: asynchronous CCRF-CEM (sensitive) in RPMI with 10 % FCS; peptide 10^-5
Description: as §1

[1] = system: CCRF-CEM/ACT 400resistent-Zellen; test: Cytotoxicity by trypan blue counting in CCRF-CEM/ACT 400 (resistant) leukaemia cells; type: cell-based; conditions: asynchronous CCRF-CEM/ACT 400 (resistant) in RPMI with 10 % FCS; peptide 10^-5
Description: as §1

[2] = system: normale humane mononukleäre Zellen des peripheren Blutes; test: Effect on normal peripheral blood mononuclear cells; type: cell-based, human; conditions: peptide 10^-5, 24 h incubation
Description: Fig. 15 zeigt, daß das erfindungsgemäße Peptid P3 [10^-5] keinen Effekt auf normale humane mononukleäre Zellen des peripheren Blutes hat, unabhängig davon, ob diese sich in einem ruhenden (a) oder aktivierten (b) Zustand befinden. […] Die Inkubation der Zellen mit P3 erfolgte für einen Zeitraum von 24 Stunden.

[3] = G0/G1-synchronised MCF-7 cells, serum-free, peptide 10^-5M
[4] = MCF-7 stimulated with EGF 10^-8, peptide 10^-5M
[5] = MCF-7 stimulated with IGF-1 10^-8M, peptide 10^-5M
[6] = MCF-7 stimulated with Östradiol (E2) 10^-9M, peptide 10^-5M
[7] = asynchronous MCF-7 in DMEM with 10 % FCS, peptide 10^-5M
[8] = G0/G1-synchronised SAOS-2 cells, serum-free

In the case of `CC(C)C[C@@H](N)C(=O)N[C@H](Cc1ccccc1)C(=O)N[C@H](Cc1ccc(O)cc1)C(=O)N[C@H](CCCCN)C(=O)N[C@H](CCCCN)C(=O)N[C@@H](C(=O)NCC(=O)NCC(=O)NCC(=O)NCCCC[C@H](NC(=O)CNC(=O)CNC(=O)CNC(=O)[C@H](NC(=O)[C@@H](CCCCN)NC(=O)[C@@H](CCCCN)NC(=O)[C@@H](Cc1ccc(O)cc1)NC(=O)[C@@H](Cc1ccccc1)NC(=O)[C@H](N)CC(C)C)C(C)C)C(=O)N[C@H](CCCNC(=N)N)C(=O)NCC(=O)NCCCC[C@H](NC(=O)CNC(=O)[C@@H](CCCNC(=N)N)NC(=O)[C@H](CCCCNC(=O)CNC(=O)CNC(=O)CNC(=O)[C@H](NC(=O)[C@@H](CCCCN)NC(=O)[C@@H](CCCCN)NC(=O)[C@@H](Cc1ccc(O)cc1)NC(=O)[C@@H](Cc1ccccc1)NC(=O)[C@H](N)CC(C)C)C(C)C)NC(=O)CNC(=O)CNC(=O)CNC(=O)[C@H](NC(=O)[C@@H](CCCCN)NC(=O)[C@@H](CCCCN)NC(=O)[C@@H](Cc1ccc(O)cc1)NC(=O)[C@@H](Cc1ccccc1)NC(=O)[C@H](N)CC(C)C)C(C)C)C(=O)NCC(=O)O)C(C)C` (racemic) [P3, NH2-[dL-dF-dY-dK-dK-dV-GGG]4-[lK-dR-G]2-lK-G-COOH], the G1-Phase (MCF-7-Zellen; [3]) is reported as “vermindert”, the “Morphologie der behandelten Zellen” value (MCF-7-Zellen; [3]) is reported as “entspricht der apoptotischer Zellen” and the S-Phase (MCF-7-Zellen; [3]) is reported as “erhöht”. The G1-Phase (MCF-7-Zellen; [4]) was “Zunahme”, the G2-Phase (MCF-7-Zellen; [4]) was “Zunahme” and the “Morphologie der behandelten Zellen” value (MCF-7-Zellen; [4]) was “entspricht der apoptotischer Zellen”. For the same compound, the S-Phase (MCF-7-Zellen; [4]) was “Abnahme”, the “Morphologie der behandelten Zellen” value (MCF-7-Zellen; MCF-7 stimulated with IGF-1 10^-8M, peptide 5 x 10^-6M) was “entspricht jeweils der apoptotischer Zellen” and the G1-Phase (MCF-7-Zellen; [5]) was “Zunahme”. The G2/M-Phase (MCF-7-Zellen; [5]) was “Zunahme”, the “Morphologie der behandelten Zellen” value (MCF-7-Zellen; [5]) was “entspricht jeweils der apoptotischer Zellen” and the S-Phase (MCF-7-Zellen; [5]) was “Abnahme”. The “durch IGF-1 [10^-8M] bedingte Fortschreiten des Zellzyklus” value (MCF-7-Zellen; MCF-7 stimulated with IGF-1 10^-8M, several peptide concentrations (Fig. 7)) was “in einer konzentrationsabhängigen Weise blockiert”, the G1-Phase (MCF-7-Zellen; [6]) was “Zunahme” and the G2-Phase (MCF-7-Zellen; [6]) was “Zunahme”. For the same compound, the “Morphologie der behandelten Zellen” value (MCF-7-Zellen; [6]) was “entspricht der apoptotischer Zellen”, the S-Phase (MCF-7-Zellen; [6]) was “Abnahme” and the G1-Phase (MCF-7-Zellen; [7]) was “vermindert”. For the same compound, the “Morphologie der behandelten Zellen” value (MCF-7-Zellen; [7]) was “entspricht der apoptotischer Zellen”, the S-Phase (MCF-7-Zellen; [7]) was “erhöht” and the G1-Phase (SAOS-2-Zellen; [8]) was “vermindert”. For the same compound, the G2-Phase (SAOS-2-Zellen; [8]) was “erhöht”, the “Morphologie der behandelten Zellen” value (SAOS-2-Zellen; [8]) was “entspricht der apoptotischer Zellen” and the S-Phase (SAOS-2-Zellen; [8]) was “erhöht”. For the same compound, the G1-Phase (SAOS-2-Zellen; SAOS-2 stimulated with 10 % FS) was “Zunahme”, the “Morphologie der behandelten Zellen” value (SAOS-2-Zellen; SAOS-2 stimulated with 10 % FS) was “entspricht der apoptotischer Zellen” and the S-Phase (SAOS-2-Zellen; SAOS-2 stimulated with 10 % FS) was “Abnahme”. For the same compound, the “zytotoxische Effekt (lebende mit P3 behandelte Zellen als Prozent der lebenden mit P3 nicht behandelten Zellen)” value (K562-Zellen) was “zeitabhängig”, the “zytotoxischer Effekt” value (CCRF-CEMsensitiv) was “zytotoxisch” and the “zytotoxischer Effekt” value [1] was “zytotoxisch”. For the same compound, the “Effekt auf normale humane mononukleäre Zellen des peripheren Blutes” value ([2]; activated state (b)) was “keinen Effekt”, the “morphologische Veränderungen” value ([2]; resting or activated cells) was “keine morphologischen Veränderungen” and the “Effekt auf normale humane mononukleäre Zellen des peripheren Blutes” value ([2]; resting state (a)) was “keinen Effekt”.
